Test results: patent US20230045421A1 (priority 2018, published 2023)
Where two headings read alike, the source gives them in different places.

Tested on: HBV rcDNA
Assay: HepDE19 assay with bDNA quantitation of HBV rcDNA
Assay type: cell-based, hepatitis B virus
Outline: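 HepDE19 cells (HepG2-derived, Tet-regulated HBV replication) were deprived of tetracycline and then exposed to compounds for 7 days at 37 °C in 0.5% DMSO, 8-point titration from 25 μM. rcDNA was quantified by bDNA and EC50/EC90 came from 4-parameter fits. CC50 was measured by CellTiter-Glo ATP content on replicate plates after 4 days.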

[1] = HepDE19 assay, inhibition of formation of rcDNA, read-out: DE-19bDNA EC50
[2] = HepDE19 assay, inhibition of formation of relaxed circular DNA (rcDNA), bDNA quantitation, read-out: DE-19bDNA EC50
[3] = Hepatitis B virus, HepDE19, HepDE19 assay, inhibition of formation of rcDNA, read-out: DE-19bDNA EC50
[4] = read-out: DE-19bDNA EC50, HepDE19 assay, inhibition of formation of relaxed circular DNA (rcDNA), bDNA quantitation

Compound	EC50 [1] [µM]	EC50 [2] [µM]	further results
CC(c1cn(C(C)C)c(=O)c2ccccc12)N(C)C(=O)Nc1ccc(F)c(Cl)c1 (single isomer, unassigned) [Compound 188, 3-(3-Chloro-4-fluorophenyl)-1-(1-(2-isopropyl-1-oxo-1,2-dihydroisoquinolin-4-yl)ethyl)-1-methylurea]	1.8	–	–
CC(c1cn(C)c(=O)c2cc(F)c(F)cc12)N(CCCO)C(=O)Nc1ccc(F)c(Cl)c1 (single isomer, unassigned) [Compound 351, 3-(3-Chloro-4-fluorophenyl)-1-(1-(6,7-difluoro-2-methyl-1-oxo-1,2-dihydroisoquinolin-4-yl)ethyl)-1-(3-hydroxypropyl)urea]	–	0.007	–
O=C(Nc1ccc(F)c(Cl)c1)N(Cc1c[nH]c(=O)c2ccccc12)CC1CC1 [Compound 53, 3-(3-Chloro-4-fluorophenyl)-1-(cyclopropylmethyl)-1-((1-oxo-1,2-dihydroisoquinolin-4-yl)methyl)urea]	–	–	EC50 (Hepatitis B virus, HepDE19, read-out: DE-19bDNA EC50 (μM), HepDE19 assay, inhibition of formation of rcDNA): 0.16 µM
Cc1ncc(C(C)N(C)C(=O)Nc2ccc(F)c(Cl)c2)c2ccccc12 (single isomer, unassigned) [Compound 352, 3-(3-Chloro-4-fluorophenyl)-1-methyl-1-(1-(1-methylisoquinolin-4-yl)ethyl)urea]	–	9.9	–
CC(c1c[nH]c(=O)c2ccccc12)N(C[C@H]1CCCO1)C(=O)Nc1ccc(F)c(Cl)c1 (single isomer, unassigned) [Compound 156]	0.17	–	–
CC(c1cnc(OCc2ncn(C)n2)c2cc(F)c(F)cc12)N(C)C(=O)Nc1ccc(F)c(Cl)c1 (single isomer, unassigned) [Compound 347, 3-(3-Chloro-4-fluorophenyl)-1-(1-(6,7-difluoro-1-((1-methyl-1H-1,2,4-triazol-3-yl)methoxy)isoquinolin-4-yl)ethyl)-1-methylurea]	–	0.007	–
CC(C)CN(C(=O)Nc1ccc(F)c(Cl)c1)C(C)c1c[nH]c(=O)c2ccccc12 (single isomer, unassigned) [Compound 144, 3-(3-chloro-4-fluorophenyl)-1-isobutyl-1-(1-(1-oxo-1,2-dihydroisoquinolin-4-yl)ethyl)urea]	0.01	–	–
CC(c1c[nH]c(=O)c2ccccc12)N(CCS(C)(=O)=O)C(=O)Nc1ccc(F)c(Cl)c1 (single isomer, unassigned) [Compound 108, 3-(3-Chloro-4-fluorophenyl)-1-(2-(methylsulfonyl)ethyl)-1-(1-(1-oxo-1,2-dihydroisoquinolin-4-yl)ethyl)urea]	0.05	–	–
CC(c1c[nH]c(=O)c2ccccc12)N(CCCCO)C(=O)Nc1ccc(F)c(Cl)c1 (single isomer, unassigned) [Compound 149, 3-(3-Chloro-4-fluorophenyl)-1-(4-hydroxybutyl)-1-(1-(1-oxo-1,2-dihydroisoquinolin-4-yl)ethyl)urea]	3.3	–	–
CC(c1cn(C)c(=O)c2c(F)cccc12)N(C)C(=O)Nc1ccc(F)c(Cl)c1 (single isomer, unassigned) [Compound 358, 3-(3-Chloro-4-fluorophenyl)-1-(1-(8-fluoro-2-methyl-1-oxo-1,2-dihydroisoquinolin-4-yl)ethyl)-1-methylurea]	–	5.9	–
CCN(C(=O)Nc1ccc(F)c(F)c1)C(C)c1c[nH]c(=O)c2c(F)c(F)ccc12 (single isomer, unassigned) [Compound 463, 1-(1-(7,8-Difluoro-1-oxo-1,2-dihydroisoquinolin-4-yl)ethyl)-3-(3,4-difluorophenyl)-1-ethylurea]	–	0.008	–
CCN(Cc1cn(C)c(=O)c2ccccc12)C(=O)Nc1ccc(F)c(Cl)c1 [Compound 18, 3-(3-Chloro-4-fluorophenyl)-1-ethyl-1-((2-methyl-1-oxo-1,2-dihydroisoquinolin-4-yl)methyl)urea]	–	–	EC50 [3]: 0.26 µM
CC(c1cnc(OCc2nc[nH]n2)c2cc(F)c(F)cc12)N(CCCO)C(=O)Nc1ccc(F)c(Cl)c1 (single isomer, unassigned) [Compound 364, 1-(1-(1-((1H-1,2,4-Triazol-3-yl)methoxy)-6,7-difluoroisoquinolin-4-yl)ethyl)-3-(3-chloro-4-fluorophenyl)-1-(3-hydroxypropyl)urea]	–	2	–
CC(c1cnc(CO)c2ccccc12)N(C)C(=O)Nc1ccc(F)c(Cl)c1 (single isomer, unassigned) [Compound 326, 3-(3-Chloro-4-fluorophenyl)-1-(1-(1-(hydroxymethyl)isoquinolin-4-yl)ethyl)-1-methylurea]	–	16	–
CC(c1c[nH]c(=O)c2cc(F)ccc12)N(C)C(=O)Nc1ccc(F)c(Cl)c1 (single isomer, unassigned) [Compound 263, 3-(3-Chloro-4-fluorophenyl)-1-(1-(7-fluoro-1-oxo-1,2-dihydroisoquinolin-4-yl)ethyl)-1-methylurea]	0.78	–	–
CCCN(Cc1c[nH]c(=O)c2ccccc12)C(=O)Nc1ccc(F)c(Cl)c1 [Compound 28, 3-(3-Chloro-4-fluorophenyl)-1-((1-oxo-1,2-dihydroisoquinolin-4-yl)methyl)-1-propylurea]	–	–	EC50 [3]: 0.06 µM
CC(c1c[nH]c(=O)c2c(F)cc(F)cc12)N(C)C(=O)Nc1ccc(F)cc1 (single isomer, unassigned) [Compound 371, 1-(1-(6,8-Difluoro-1-oxo-1,2-dihydroisoquinolin-4-yl)ethyl)-3-(4-fluorophenyl)-1-methylurea]	–	0.053	–
CCN(Cc1cnc(OC)c2ccccc12)C(=O)Nc1ccc(F)c(Cl)c1 [Compound 15, 3-(3-Chloro-4-fluorophenyl)-1-ethyl-1-((1-methoxyisoquinolin-4-yl)methyl)urea]	–	–	EC50 [3]: 1.2 µM
Cc1[nH]c(=O)c2ccccc2c1C(C)N(C)C(=O)Nc1ccc(F)c(Cl)c1 (single isomer, unassigned) [Compound 223, 3-(3-Chloro-4-fluorophenyl)-1-methyl-1-(1-(3-methyl-1-oxo-1,2-dihydroisoquinolin-4-yl)ethyl)urea]	0.027	–	–
CC(c1c[nH]c(=O)c2c(F)c(F)ccc12)N(C)C(=O)Nc1ccc(F)c(C#N)c1 (single isomer, unassigned) [Compound 470, 3-(3-Cyano-4-fluorophenyl)-1-(1-(7,8-difluoro-1-oxo-1,2-dihydroisoquinolin-4-yl)ethyl)-1-methylurea]	–	2	–
CC(c1c[nH]c(=O)c2ccccc12)N(Cc1cncs1)C(=O)Nc1ccc(F)c(Cl)c1 (single isomer, unassigned) [Compound 323, 3-(3-Chloro-4-fluorophenyl)-1-(1-(1-oxo-1,2-dihydroisoquinolin-4-yl)ethyl)-1-(thiazol-5-ylmethyl)urea]	–	0.085	–
CC(c1c[nH]c(=O)c2ccccc12)N(CCS(N)(=O)=O)C(=O)Nc1ccc(F)c(Cl)c1 (single isomer, unassigned) [Compound 119, 2-(3-(3-Chloro-4-fluorophenyl)-1-(1-(1-oxo-1,2-dihydroisoquinolin-4-yl)ethyl)ureido) ethanesulfonamide]	0.07	–	–
CC(c1c[nH]c(=O)c2c(F)c(F)ccc12)N(CCS(N)(=O)=O)C(=O)Nc1ccc(F)cc1 (single isomer, unassigned) [Compound 395, 2-(1-(1-(7,8-Difluoro-1-oxo-1,2-dihydroisoquinolin-4-yl)ethyl)-3-(4-fluorophenyl)ureido)ethane-1-sulfonamide]	–	0.3	–
CC(c1cnc(OCc2ncn(C)n2)c2ccccc12)N(CCCO)C(=O)Nc1ccc(F)c(Cl)c1 (single isomer, unassigned) [Compound 255, 3-(3-Chloro-4-fluorophenyl)-1-(3-hydroxypropyl)-1-(1-(1-((1-methyl-1H-1,2,4-triazol-3-yl)methoxy)isoquinolin-4-yl)ethyl)urea]	5.1	–	–
CC(C)CN(C(=O)Nc1ccc(F)c(Cl)c1)C(C)c1c[nH]c(=O)c2cnccc12 (single isomer, unassigned) [Compound 254, 3-(3-Chloro-4-fluorophenyl)-1-isobutyl-1-(1-(1-oxo-1,2-dihydro-2,7-naphthyridin-4-yl)ethyl)urea]	0.016	–	–
CCN(C(=O)Nc1ccccc1)C(C)c1c[nH]c(=O)c2c(F)c(F)ccc12 (single isomer, unassigned) [Compound 467, 1-(1-(7,8-Difluoro-1-oxo-1,2-dihydroisoquinolin-4-yl)ethyl)-1-ethyl-3-phenylurea]	–	–	EC50 [4]: 0.066 µM
CC(c1c[nH]c(=O)c2c(F)c(F)ccc12)N(C)C(=O)NCc1cc(F)c(F)c(F)c1 (single isomer, unassigned) [Compound 493, 1-(1-(7,8-Difluoro-1-oxo-1,2-dihydroisoquinolin-4-yl)ethyl)-1-methyl-3-(3,4,5-trifluorobenzyl)urea]	–	15	–
CC(c1c[nH]c(=O)c2ccccc12)N(Cc1nccs1)C(=O)Nc1ccc(F)c(Cl)c1 (single isomer, unassigned) [Compound 310, 3-(3-Chloro-4-fluorophenyl)-1-(1-(1-oxo-1,2-dihydroisoquinolin-4-yl)ethyl)-1-(thiazol-2-ylmethyl)urea]	–	5.5	–
CC(c1c[nH]c(=O)c2c(F)c(F)ccc12)N(C)C(=O)Nc1ccncc1 (single isomer, unassigned) [Compound 449, 1-(1-(7,8-Difluoro-1-oxo-1,2-dihydroisoquinolin-4-yl)ethyl)-1-methyl-3-(pyridin-4-yl)urea]	–	–	EC50 (Hepatitis B virus, HepDE19, read-out: DE-19bDNA EC50 (μM), HepDE19 assay, inhibition of formation of relaxed circular DNA (rcDNA), bDNA quantitation): 15 µM
CC(c1c[nH]c(=O)c2c(F)c(F)ccc12)N(C)C(=O)Nc1cc(Cl)cc(Cl)c1 (single isomer, unassigned) [Compound 447, 3-(3,5-Dichlorophenyl)-1-(1-(7,8-difluoro-1-oxo-1,2-dihydroisoquinolin-4-yl)ethyl)-1-methylurea]	–	–	EC50 [4]: 6.5 µM
